This is an account of results in patent US7053041B1, “Methods and compositions useful for inhibition of αvβ5mediated angiogenesis” (The Scripps Research Institute, priority 1996, dated 2006).

[ ]: non-standard residue; d: D form.

In one test the test system is retinal vasculogenesis. The test can be described thus: newborn mouse model of retinal angiogenesis. It is filed as in vivo. As to the method:
For the model, newborn mice were injected subcutaneously twice daily for four days starting from day 0 with the cyclic peptide RGDfV (SEQ ID NO 4) (also referred to as peptide 203) or the control peptide RADfV (SEQ ID NO 5). On postnatal day five, globes were removed and fixed in 4.0% paraformaldehyde (PFA) at room temperature.
To quantitate mouse retinal angiogenesis, the distance from the optic nerve head to the most distal point of a single vessel selected in each of six equal sectors around a twelve hour clock was measured. The mean distance was calculated and averaged with similar data obtained from an entire litter. To measure the total volume of retinal blood vessels, the entire specimen was scanned in 2.0 μm optical sections and stored digitally. The “seed” function in Bio-Rad's Lasersharp software was then used to threshold and count cubic pixels in each section. A macro was written to sum the volume of all sections and determine the value for all vascular structures.

The test system of test [1] is bFGF-induced angiogenesis. In words: chick CAM assay, bFGF-induced angiogenesis, intravenous inhibitors. It counts as in vivo. The conditions noted are these: for inhibition of bFGF-induced CAM angiogenesis: bFGF 150 ng/ml, 75 μg antibody or peptide intravenously, 72 hours. As for the experimental part: Ten day old chick embryos were obtained from McIntyre Poultry (Lakeside, Calif.) and incubated at 37C with 60% humidity. A small hole was made through the shell at the end of the egg directly over the air sac with the use of a small crafts drill (Dremel, Division of Emerson Electric Co., Racine, Wis.). A second hole was drilled on the broad side of the egg in a region devoid of embryonic blood vessels determined previously by candling the egg. […] A 1.0 centimeter (cm)×1.0 cm square window was cut through the shell over the dropped CAM with the use of a small model grinding wheel (Dremel). The small window allowed direct access to the underlying CAM.
Angiogenesis was induced by placing a 5 millimeter (mm)×5 mm Whatman filter disk (Whatman Filter paper No. 1) saturated with Hanks Balanced Salt Solution (HBSS, GIBCO, Grand Island, N.Y.) or HBSS containing preselected cytokines at a preselected concentration, i.e. one to test the effect on angiogenesis, on the CAM of a 10 day chick embryo in a region devoid of blood vessels and the windows were later sealed with tape. Angiogenesis was monitored by photomicroscopy after 72 hours. CAMs were snap frozen then 6 μm cryostat sections were fixed with acetone and stained by immunofluorescence as described in Example 2B and 2C with 10 μg/ml of selected anti-integrin antibodies, including those directed against αvβ5 as described in Example 1.
Angiogenesis was first induced on 10 day old chick embryos by application of growth factor-saturated filter disks. Specifically, in the first assays, angiogenesis was induced by exposure to either bFGF or VEGF, each at a concentration of 150 ng/ml.
For application of growth factors, during the candling procedures, prominent blood vessels were selected and marks were made on the egg shell to indicate their positions. The holes were drilled in the shell, the CAMs were dropped and growth factor-saturated filter papers were then separately placed on the CAMs as described above. The windows were sealed with sterile tape and the embryos were replaced in the incubator.
Twenty four hours later, a second small window was carefully cut on the lateral side of the egg shell directly over prominent blood vessels selected previously. The outer egg shell was carefully removed leaving the embryonic membranes intact. The shell membrane was made transparent with a small drop of mineral oil (Perkin-Elmer Corp, Norwalk, Conn.) which allowed the blood vessels to be visualized easily. Then, phosphate buffered saline (PBS), 75 μg of purified sterile anti-integrin antibodies or 75 μg of synthetic peptides (cyclic peptide RGDfV, SEQ ID NO 4 and control cyclic peptide RADfV, SEQ ID NO 5) in PBS were injected into blood vessels apparent on the growth factor-induced CAMs. The windows were sealed with tape and the embryos were allowed to incubate until 72 hours.
The filter discs and representative surrounding CAM tissues were photographed in a stereomicroscope (FIGS. 3A–3F and FIGS. 5A–5F) and the mean angiogenic index +/− the standard error was determined for 12 CAMs per condition (FIGS. 4A–4B and FIGS. 6A–6B). Angiogenesis was scored for each embryo in a double blind manner by analyzing the number and extent of branching of blood vessels within the area of each disc. The scores ranged from 1 (low) to 4 (high) and the angiogenesis index was determined by subtracting a background of 1 from all data. […]

The next test deals with M21-L tumors. In words: tumor regression on chick CAM, M21-L tumors, intravenous peptide. It counts as in vivo. The conditions noted are these: 100 ug peptide intravenously 18 hours postimplantation; 48 hours more. As for the experimental part:
(§1) In one particular set of assays, additional tumor regression assays were performed with the αvβ5-reactive peptide 85189 (SEQ ID NO 9) against 69601 (SEQ ID NO 5) as a control. The assays were performed as described above with the exception that 100 ug of peptide was intravenously injected into the CAM at 18 hourst postimplantation of the various tumors which in this case included UCLAP-3, M21-L and FgM tumor types. After 48 hours more, the tumors were then resected and wet weights were obtained.

The target of a further test is integrin αvβ3 (Homo sapiens, UniProt P05106+P06756). As to conditions: cited from earlier work.
Another test concerns FgM tumors. In words: tumor regression on chick CAM, FgM tumors, intravenous peptide. It counts as in vivo. The conditions noted are these: 100 ug peptide intravenously 18 hours postimplantation; 48 hours more. As for the experimental part: as §1
In another test the target is integrin α5β1 (Homo sapiens, UniProt P05556+P08648). The conditions noted are these: cited from earlier work.
Chain of integrin α5β1 (P08648 42-894 limits assumed): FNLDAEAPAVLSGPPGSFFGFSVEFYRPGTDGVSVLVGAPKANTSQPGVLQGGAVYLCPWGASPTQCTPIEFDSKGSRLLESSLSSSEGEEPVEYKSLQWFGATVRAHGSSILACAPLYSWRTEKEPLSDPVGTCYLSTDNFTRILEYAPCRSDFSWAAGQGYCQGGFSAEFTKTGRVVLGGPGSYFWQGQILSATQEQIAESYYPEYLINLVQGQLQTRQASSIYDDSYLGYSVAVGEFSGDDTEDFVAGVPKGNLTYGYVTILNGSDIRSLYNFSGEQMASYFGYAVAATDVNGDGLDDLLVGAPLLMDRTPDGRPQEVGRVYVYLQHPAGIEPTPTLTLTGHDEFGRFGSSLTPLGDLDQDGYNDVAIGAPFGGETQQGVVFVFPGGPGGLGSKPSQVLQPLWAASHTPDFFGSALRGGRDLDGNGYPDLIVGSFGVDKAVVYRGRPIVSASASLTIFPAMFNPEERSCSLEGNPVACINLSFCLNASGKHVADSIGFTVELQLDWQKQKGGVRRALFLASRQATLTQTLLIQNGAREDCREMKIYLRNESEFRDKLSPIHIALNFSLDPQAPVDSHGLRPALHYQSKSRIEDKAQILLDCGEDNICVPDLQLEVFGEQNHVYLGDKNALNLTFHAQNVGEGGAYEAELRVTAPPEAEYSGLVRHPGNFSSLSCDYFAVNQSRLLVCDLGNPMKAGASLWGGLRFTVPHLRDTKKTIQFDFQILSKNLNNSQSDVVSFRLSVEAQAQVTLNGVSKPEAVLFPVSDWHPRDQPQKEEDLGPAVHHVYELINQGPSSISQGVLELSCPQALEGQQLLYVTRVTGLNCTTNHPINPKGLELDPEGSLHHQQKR
Chain of integrin α5β1 (P08648 895-1049 partner limits assumed): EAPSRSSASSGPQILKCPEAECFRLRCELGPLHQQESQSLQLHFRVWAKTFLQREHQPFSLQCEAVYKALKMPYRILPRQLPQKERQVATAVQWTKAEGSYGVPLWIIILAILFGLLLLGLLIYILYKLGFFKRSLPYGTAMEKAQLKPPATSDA
Chain of integrin α5β1 (P05556 21-798): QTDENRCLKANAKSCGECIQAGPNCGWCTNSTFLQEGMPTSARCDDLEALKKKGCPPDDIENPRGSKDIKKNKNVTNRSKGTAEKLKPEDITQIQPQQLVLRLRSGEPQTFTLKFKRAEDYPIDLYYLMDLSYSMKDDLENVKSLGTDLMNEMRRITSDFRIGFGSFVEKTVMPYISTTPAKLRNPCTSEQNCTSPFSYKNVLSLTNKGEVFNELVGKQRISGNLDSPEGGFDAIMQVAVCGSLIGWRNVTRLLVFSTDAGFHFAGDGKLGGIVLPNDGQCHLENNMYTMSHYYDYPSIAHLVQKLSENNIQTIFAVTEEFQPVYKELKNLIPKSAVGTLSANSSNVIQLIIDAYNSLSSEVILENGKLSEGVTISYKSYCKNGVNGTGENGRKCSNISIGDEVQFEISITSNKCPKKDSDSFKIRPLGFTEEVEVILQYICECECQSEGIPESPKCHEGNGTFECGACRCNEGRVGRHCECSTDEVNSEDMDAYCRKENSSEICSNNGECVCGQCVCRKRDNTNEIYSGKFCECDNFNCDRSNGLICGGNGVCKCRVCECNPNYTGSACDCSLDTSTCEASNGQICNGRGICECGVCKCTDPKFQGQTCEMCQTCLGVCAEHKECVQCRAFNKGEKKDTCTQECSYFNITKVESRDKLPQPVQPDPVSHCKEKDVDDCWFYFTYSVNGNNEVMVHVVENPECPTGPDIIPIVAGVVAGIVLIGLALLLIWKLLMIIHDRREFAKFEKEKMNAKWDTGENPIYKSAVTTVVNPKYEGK

Chain of integrin αvβ3 (P06756 31-889 limits assumed): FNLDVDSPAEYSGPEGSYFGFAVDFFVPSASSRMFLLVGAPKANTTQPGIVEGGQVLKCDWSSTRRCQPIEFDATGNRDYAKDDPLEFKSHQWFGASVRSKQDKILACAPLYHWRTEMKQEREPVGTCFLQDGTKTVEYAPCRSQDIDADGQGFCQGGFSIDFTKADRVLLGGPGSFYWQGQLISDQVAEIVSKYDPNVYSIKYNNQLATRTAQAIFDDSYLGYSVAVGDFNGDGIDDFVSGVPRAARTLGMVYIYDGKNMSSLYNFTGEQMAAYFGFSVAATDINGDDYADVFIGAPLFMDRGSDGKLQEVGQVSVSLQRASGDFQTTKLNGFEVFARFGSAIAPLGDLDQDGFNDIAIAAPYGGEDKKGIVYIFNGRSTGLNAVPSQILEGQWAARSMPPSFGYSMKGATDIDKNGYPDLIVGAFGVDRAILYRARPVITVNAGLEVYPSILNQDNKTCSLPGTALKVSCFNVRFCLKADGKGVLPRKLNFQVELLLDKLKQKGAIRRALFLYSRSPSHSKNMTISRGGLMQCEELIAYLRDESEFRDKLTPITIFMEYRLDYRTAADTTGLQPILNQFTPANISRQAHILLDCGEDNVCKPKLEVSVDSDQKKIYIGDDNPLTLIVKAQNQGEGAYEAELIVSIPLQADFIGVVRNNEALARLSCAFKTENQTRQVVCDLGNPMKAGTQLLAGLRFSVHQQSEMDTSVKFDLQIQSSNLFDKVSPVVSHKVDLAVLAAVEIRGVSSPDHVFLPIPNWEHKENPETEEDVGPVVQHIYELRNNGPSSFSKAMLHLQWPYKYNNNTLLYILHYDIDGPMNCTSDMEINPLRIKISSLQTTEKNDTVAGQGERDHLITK
Chain of integrin αvβ3 (P06756 891-1048 partner limits assumed): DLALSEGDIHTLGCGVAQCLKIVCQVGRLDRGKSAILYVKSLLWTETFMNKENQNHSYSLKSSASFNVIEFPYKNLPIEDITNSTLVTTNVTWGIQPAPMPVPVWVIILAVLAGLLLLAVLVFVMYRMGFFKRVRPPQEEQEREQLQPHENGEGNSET
Chain of integrin αvβ3 (P05106 27-788): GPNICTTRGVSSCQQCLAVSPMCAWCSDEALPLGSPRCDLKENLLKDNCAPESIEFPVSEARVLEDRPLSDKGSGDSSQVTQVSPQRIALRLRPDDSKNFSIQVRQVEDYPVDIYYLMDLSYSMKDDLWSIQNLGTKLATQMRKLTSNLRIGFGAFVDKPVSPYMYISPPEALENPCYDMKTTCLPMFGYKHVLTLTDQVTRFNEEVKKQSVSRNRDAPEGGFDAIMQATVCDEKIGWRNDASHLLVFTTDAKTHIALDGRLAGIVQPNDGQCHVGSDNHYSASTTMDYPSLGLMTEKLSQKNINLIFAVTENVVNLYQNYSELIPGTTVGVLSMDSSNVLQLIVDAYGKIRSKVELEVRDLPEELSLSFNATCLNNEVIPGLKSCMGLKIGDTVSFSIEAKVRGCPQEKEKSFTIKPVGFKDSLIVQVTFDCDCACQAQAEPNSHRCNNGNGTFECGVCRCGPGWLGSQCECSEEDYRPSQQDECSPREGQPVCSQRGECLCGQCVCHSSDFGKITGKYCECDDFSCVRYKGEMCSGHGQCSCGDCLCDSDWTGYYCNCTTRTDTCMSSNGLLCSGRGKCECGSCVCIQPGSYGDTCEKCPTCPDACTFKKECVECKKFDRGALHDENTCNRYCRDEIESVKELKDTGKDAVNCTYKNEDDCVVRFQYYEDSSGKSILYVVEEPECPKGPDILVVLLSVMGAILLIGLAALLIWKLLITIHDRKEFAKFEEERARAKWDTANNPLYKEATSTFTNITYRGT

On to “cyclo(Arg-Ala-Asp-D-Phe-Val) (cyclo(RAD[dF]V); SMILES CC(C)[C@@H]1NC(=O)[C@@H](Cc2ccccc2)NC(=O)[C@H](CC(=O)O)NC(=O)[C@H](C)NC(=O)[C@H](CCCNC(=N)N)NC1=O) [peptide 69601, reference compound]”, for which the “mean volume of retinal vessels” value with retinal vasculogenesis (postnatal day five) is listed as 15.7×10^6 μm^3. The “difference in vessel growth between untreated five-day old mice and same aged treated mice” value with retinal vasculogenesis (two dimensions) is listed as “no statistical difference”. Besides, in test [1], the “inhibition of bFGF-induced CAM angiogenesis” value was “did not effect angiogenesis”. The “effect on tumor wet weight, M21-L” value in the test on M21-L tumors was “lack of effect”. The “inhibition of binding of fibrinogen to integrin αvβ3” value with integrin αvβ3 was “inhibiting binding”. Moreover, the “effect on tumor wet weight, FgM” value in the test with FgM tumors is listed as “lack of effect”. For the same molecule, the “inhibition of binding of fibrinogen to integrin α5β1” value with integrin α5β1 is listed as “not inhibit binding”.

In the case of “cyclo(Arg-Gly-Asp-D-Phe-NMeVal) [peptide 85189]”, the “effect on tumor wet weight, M21-L” value in the test on M21-L tumors is reported as “reduction in tumor weight”. Moreover, in the test with FgM tumors, the “effect on tumor wet weight, FgM” value is on record as “reduction in tumor weight”.

B1: LM609: mouse monoclonal antibody, anti-αvβ3 (antibody, V domains shown)
VH: EVQLEESGGGLVKPGGSLKLSCAASGFAFSSYDMSWVRQIPEKRLEWVAKVSSGGGSTYYLDTVQGRFTISRDNAKNTLYLQMSSLNSEDTAMYYCARHNYGSFAYWGQGTLVTVSA
VL: ELVMTQTPATLSVTPGDSVSLSCRASQSISNHLHWYQQKSHESPRLLIKYASQSISGIPSRFSGSGSGTDFTLSINSVETEDFGMYFCQQSNSWPHTFGGGTKLEIKRA
As to B1, in test [1], the “inhibition of bFGF-induced CAM angiogenesis” value is “inhibited bFGF-induced angiogenesis”. Further, in test [1] (bFGF 1.0 μg/ml, antibodies 75 μg per embryo, calphostin C 100 nM), the “effect on CAM angiogenesis in response to bFGF (angiogenesis index)” value is “blocked angiogenesis”.
